According to patent publication US7429482B2, “Screening tools for discovery of novel anabolic agents” (United States of America as represented by the Department …, priority 2005, dated 2008):

Assays:
MAFbx = MAFbx expression in gastrocnemius of rats infused with dexamethasone with or without testosterone (qPCR); format: in vivo; settings: rat, dexamethasone plus testosterone 28 mg/kg/day, 7 days
Method: Muscle was flash frozen on dry ice after excision. Total RNA was isolated by phenol:chloroform extraction (Chomczynski and Sacchi, Anal Biochem 162: 156-159, 1987) and further enriched using RNAeasy minicolumns (Qiagen) with digestion on the column with RNAse-free DNAse (Qiagen).
RNA was quantified by absorbance at 260 nm. One microgram of total RNA was used to prepare cDNA libraries using the High Capacity cDNA Archive Kit (Applied Biosystems, Foster City, Calif.). Libraries were diluted 25-fold with water. Real time PCR was performed using Taqman 2×PCR buffer (Applied Biosystems) and an Applied Biosystems 7500 thermocycler. Data were normalized relative to that for 18S RNA. Relative changes in expression were determined using the 2^−ΔΔCt method. Taqman Assay on Demand probes (Applied Biosystems) were used for all assays except rat 18S RNA, which was quantified using the following […]: Forward: […] (SEQ ID NO:15); Reverse: […] (SEQ ID NO:16); Probe: FAM-[…] (SEQ ID NO:17; Labeled with FAM and non-fluoresent quencher, NFQ, at 5′ and 3′ ends, repsectively).
Male Wistar rats weighing 250 gm were anesthetized with ketamine/xylazine followed by implantation Alzet miniosmotic pumps administering vehicle (propylene glycocol), dexamethasone (0.7 mg/kg/day), or dexamethasone plus testosterone (28 mg/kg/day). […]

IGF-1 receptor (IGF-1R) = assay: Acute denervation: IGF-1 receptor mRNA in EDL and soleus (qPCR); format: in vivo, rat
Method: Male Wistar rats weighing 250 gm (Taconic Farms, Germantown, N.Y.) were provided food and water ad libitum and were housed in a temperature and humidity controlled environment providing a 12:12 hour day-night cycle. For surgical procedures, animals were anesthetized with ketamine/xylazine. The left sciatic nerve was exposed by blunt dissection, and a 1 to 2 mm piece of this nerve was excised just below the level of the femoral head. A sham surgery was performed on the right hind limb in which the sciatic nerve was exposed but was not transected. Model 2002 Alzet pumps were implanted subcutaneously on the back. […] A pellet containing 15 mg of testosterone (Innovative Research of America, Sarasota, Fla.) administered as a continuous infusion (5 mg/wk), or a pellet containing placebo, was inserted into a subcutaneous pouch. […]
(§1) Total RNA was extracted from skeletal muscle (20 mg) by homogenization in guanidine thiocyanate using a Polytron followed by extraction using phenol-chloroform (Chomczynski and Sacchi, Anal Biochem 162: 156-159, 1987). […] Total RNA was then eluted and quantified by absorbance at 260 nm. […] Levels of gene expression in the denervated muscle were expressed as fold induction relative to muscle from the sham-denervated leg of animals administered vehicle. […] Fold-induction was determined using the 2^−ΔΔCt method, using expression of 18S RNA as the normalization control. […]

myostatin = assay: Acute denervation: myostatin mRNA in EDL and soleus (qPCR); format: in vivo, rat
Method: Male Wistar rats weighing 250 gm (Taconic Farms, Germantown, N.Y.) were provided food and water ad libitum and were housed in a temperature and humidity controlled environment providing a 12:12 hour day-night cycle. For surgical procedures, animals were anesthetized with ketamine/xylazine. The left sciatic nerve was exposed by blunt dissection, and a 1 to 2 mm piece of this nerve was excised just below the level of the femoral head. A sham surgery was performed on the right hind limb in which the sciatic nerve was exposed but was not transected. Model 2002 Alzet pumps were implanted subcutaneously on the back. […] A pellet containing 15 mg of testosterone (Innovative Research of America, Sarasota, Fla.) administered as a continuous infusion (5 mg/wk), or a pellet containing placebo, was inserted into a subcutaneous pouch. […] Because testosterone is known to have anabolic actions (Ferrando et al., Am J Physiol Endocrinol Metab 282: E601-E607, 2002; Mauras et al., J Clin Endocrinol Metab 83: 1886-1892, 1998; Urban et al., Am J Physiol 269: E820-E826, 1995), reductions in levels of this hormone could affect muscle mass and confound interpretation of the results. Animals were euthanized 14 days later by inhalation of carbon dioxide. […]
as §1

IGF-1 receptor = assay: Chronic denervation: IGF receptor mRNA in gastrocnemius (qPCR); format: in vivo, rat; settings: for IGF-receptor expression: denervated muscle
Method: Male Wistar rats weighing 200-250 gm (Taconic Farms, Germantown, N.Y.) were provided food and water ad libitum and were housed in a temperature and humidity controlled environment providing a 12:12 hour day-night cycle. For surgical procedures, animals were anesthetized with ketamine/xylazine. The left sciatic nerve was exposed by blunt dissection, and a 1 to 2 mm piece of this nerve was excised just below the level of the femoral head. A sham surgery was performed on the right hind limb in which the sciatic nerve was exposed but was not transected. Twenty eight days later, animals were anesthetized, and Alzet pumps were implanted subcutaneously on the back. […] Testosterone levels after replacement were approximately 15 nM, a high-normal range for rats of this age. Animals were sacrificed 3, 7 or 28 days after implantation of the miniosmotic pumps by inhalation of carbon dioxide. Gastrocnemius muscles were excised and weighed, then flash frozen on dry ice and stored at −80° C.
Total RNA was extracted from skeletal muscle (20 mg) by homogenization in guanidine thiocyanate using a Polytron followed by extraction of total RNA with phenol-chloroform as described by (Chomczynski and Sacchi, Anal Biochem 162: 156-159, 1987). Total RNA was further enriched using RNAeasy minicolumns (Qiagen, Valencia, Calif.). This procedure included digestion of contaminating DNA on the column with RNAse-free DNAse (Qiagen). Total RNA was eluted and quantified by absorbance at 260 nm. One μg of total RNA was used to prepare a cDNA library by reverse transcription (High Capacity cDNA Archive Kit, Applied Biosystems). Libraries were diluted 25-fold with water. Real time PCR was performed Taqman 2×PCR buffer (Applied Biosystems) using an Applied Biosystems 7500 thermocycler. Levels of gene expression in the denervated muscle were expressed as fold induction relative to muscle from the sham-denervated leg of animals administered vehicle. […] Fold-induction was determined using the 2^−ΔΔCt method, using expression of 18S RNA as the normalization control. […]

Compound | effects of dexamethasone on MAFbx expression in gastrocnemius (MAFbx) | IGF-1R expression (IGF-1 receptor (IGF-1R); denervated soleus or EDL) | IGF-1R expression (IGF-1 receptor (IGF-1R); sham-denervated soleus and EDL, changes not significant) | myostatin expression (myostatin; denervated EDL) | myostatin expression (myostatin; sham-denervated EDL) | myostatin expression (myostatin; soleus) | IGF-receptor expression (IGF-1 receptor; after 28 days (p<0.10)) | IGF-receptor expression (IGF-1 receptor; early time points) | IGF-1 receptor expression (IGF-1 receptor; sham-denervated muscle)
C[C@]12CC[C@H]3[C@@H](CCC4=CC(=O)CC[C@@]43C)[C@@H]1CC[C@@H]2O [testosterone] | completely blocked |  |  |  |  |  |  |  | 
C[C@]12CC[C@H]3[C@@H](CCC4=CC(=O)CC[C@@H]43)[C@@H]1CC[C@@H]2O [nandrolone] |  | No appreciable effects | tended to increase | appeared to reduce | significantly reduced | did not appreciably alter | trend toward increased expression | did not alter | not altered
